From ChEMBL document CHEMBL4261654, “Synthesis and in vitro antitumor activity of novel alkenyl derivatives of pyridoxine, bioisosteric analogs of feruloyl methane” (Bioorg Med Chem, 2018)
The source made the active and inactive calls. The calls are words filed in the database; no cut-off is given here.

Experiments:
[1] = test system: PC-3; test: Induction of apoptosis in human PC3 cells assessed as late apoptotic cells at 50 uM after 24 hrs by Annexin V-PE/7-AAD staining-based flow cytometric analysis (reference value: 8%); type: functional
[2] = test system: MCF7; test: Antiproliferative activity against human MCF7 cells after 72 hrs by MTT assay; type: functional, cell-based; details: MCF7, 72 h
[3] = test system: HEK293; test: Antiproliferative activity against human HEK293 cells after 72 hrs by MTT assay; type: cell-based; details: HEK293, 72 h
[4] = Antiproliferative activity against HSF cells after 72 hrs by MTT assay; type: cell-based; details: Homo sapiens
[5] = test system: PC-3; test: Antiproliferative activity against human PC3 cells after 72 hrs by MTT assay; type: functional, cell-based; details: PC-3, 72 h
[6] = test system: A498; test: Antiproliferative activity against human A498 cells after 72 hrs by MTT assay; type: functional, cell-based; details: A498, 72 h
[7] = test system: SNB-19; test: Antiproliferative activity against human SNB19 cells after 72 hrs by MTT assay; type: functional, cell-based; details: SNB-19, 72 h
[8] = test system: M14; test: Antiproliferative activity against human M14 cells after 72 hrs by MTT assay; type: functional, cell-based; details: M14, 72 h
[9] = test system: OVCAR-4; test: Antiproliferative activity against human OVCAR4 cells after 72 hrs by MTT assay; type: functional, cell-based; details: OVCAR-4, 72 h
[10] = test system: NCI-H322M; test: Antiproliferative activity against human NCI-H322M cells after 72 hrs by MTT assay; type: functional, cell-based
[11] = test system: HCT-15; test: Antiproliferative activity against human HCT15 cells after 72 hrs by MTT assay; type: functional, cell-based; details: HCT-15, 72 h
[12] = test system: HCT-116; test: Antiproliferative activity against human HCT116 cells after 72 hrs by MTT assay; type: functional, cell-based; details: HCT-116, 72 h
[13] = test system: MDA-MB-231; test: Antiproliferative activity against human MDA-MB-231 cells after 72 hrs by MTT assay; type: functional, cell-based; details: MDA-MB-231, 72 h
[14] = test system: PC-3; test: Antiproliferative activity in human PC3 cells up to 50 uM measured during 120 hrs each 15 mins by RTCA DP based cellular impedance analysis; type: functional
[15] = test system: PC-3; test: Antimigratory activity in human PC3 cells up to 50 uM measured during 120 hrs each 15 mins by RTCA DP based cellular impedance analysis; type: functional
[16] = test system: PC-3; test: Antiproliferative activity in human PC3 cells at 2 to 10 uM measured during 120 hrs each 15 mins by RTCA DP based cellular impedance analysis; type: functional, cell-based
[17] = test system: PC-3; test: Cell cycle arrest in human PC3 cells assessed as accumulation at G0/G1 phase at 10 uM after 72 hrs by RNase/propidium iodide staining-based flow cytometric analysis (reference value: 61 +/- 3%); type: functional
[18] = test system: PC-3; test: Cell cycle arrest in human PC3 cells assessed as accumulation at S phase at 10 uM after 72 hrs by RNase/propidium iodide staining-based flow cytometric analysis (reference value: 17 +/- 1%); type: functional
[19] = test system: PC-3; test: Cell cycle arrest in human PC3 cells assessed as accumulation at G2/M phase at 10 uM after 72 hrs by RNase/propidium iodide staining-based flow cytometric analysis (reference value: 20 +/- 3%); type: functional
[20] = test system: PC-3; test: Cell cycle arrest in human PC3 cells assessed as accumulation at G0/G1 phase at 70 uM after 72 hrs by RNase/propidium iodide staining-based flow cytometric analysis (reference value: 61 +/- 3%); type: functional
[21] = test system: PC-3; test: Cell cycle arrest in human PC3 cells assessed as accumulation at S phase at 70 uM after 72 hrs by RNase/propidium iodide staining-based flow cytometric analysis (reference value: 17 +/- 1%); type: functional
[22] = test system: PC-3; test: Cell cycle arrest in human PC3 cells assessed as accumulation at G2/M phase at 70 uM after 72 hrs by RNase/propidium iodide staining-based flow cytometric analysis (reference value: 20 +/- 3%); type: functional
[23] = test system: PC-3; test: Induction of apoptosis in human PC3 cells assessed as late apoptotic cells at 150 uM after 24 hrs by Annexin V-PE/7-AAD staining-based flow cytometric analysis (reference value: 8%); type: functional
[24] = Antioxidant activity assessed as ferric ion reducing activity at 20 to 320 umol after 20 mins by FRAP assay; type: functional
[25] = test system: PC-3; test: Induction of apoptosis in human PC3 cells assessed as necrotic cells at 50 uM after 24 hrs by Annexin V-PE/7-AAD staining-based flow cytometric analysis (reference value: 14%); type: functional
[26] = test system: PC-3; test: Induction of apoptosis in human PC3 cells assessed as early apoptotic cells at 50 uM after 24 hrs by Annexin V-PE/7-AAD staining-based flow cytometric analysis (reference value: 2%); type: functional
[27] = test system: PC-3; test: Induction of apoptosis in human PC3 cells assessed as viable cells at 50 uM after 24 hrs by Annexin V-PE/7-AAD staining-based flow cytometric analysis (reference value: 70%); type: functional; details: PC-3, 24 h, read-out: Activity
[28] = test system: PC-3; test: Induction of apoptosis in human PC3 cells assessed as necrotic cells at 150 uM after 24 hrs by Annexin V-PE/7-AAD staining-based flow cytometric analysis (reference value: 14%); type: functional
[29] = test system: PC-3; test: Induction of apoptosis in human PC3 cells assessed as early apoptotic cells at 150 uM after 24 hrs by Annexin V-PE/7-AAD staining-based flow cytometric analysis (reference value: 2%); type: functional
[30] = test system: PC-3; test: Induction of apoptosis in human PC3 cells assessed as viable cells at 150 uM after 24 hrs by Annexin V-PE/7-AAD staining-based flow cytometric analysis (reference value: 70%); type: functional; details: PC-3, 24 h, read-out: Activity
[31] = test system: PC-3; test: Induction of mitochondrial membrane potential loss in human PC3 cells assessed as fluorescence intensity at 50 uM after 24 hrs by TMRE dye-based flow cytometric analysis (reference value: 10101 +/- 853); type: functional
[32] = test system: PC-3; test: Induction of mitochondrial membrane potential loss in human PC3 cells assessed as fluorescence intensity at 150 uM after 24 hrs by TMRE dye-based flow cytometric analysis (reference value: 10101 +/- 853); type: functional
[33] = test system: PC-3; test: Induction of apoptosis in human PC3 cells assessed as intracellular ROS levels by measuring fluoresence intensity at 50 uM after 24 hrs by DCFH-DA staining-based flow cytometric analysis (reference value: 3176 +/- 398); type: functional
[34] = test system: PC-3; test: Induction of apoptosis in human PC3 cells assessed as intracellular ROS levels by measuring fluoresence intensity at 150 uM after 24 hrs by DCFH-DA staining-based flow cytometric analysis (reference value: 3176 +/- 398); type: functional

Q: For `COc1cc(/C=C/C(C)=O)ccc1O` [DEHYDROZINGERONE], which Activity [1] is on record?
A: 13%

Q: What about the IC50 [2] of the same molecule?
A: 31 µM

Q: And the IC50 [3]?
A: 64 µM

Q: And the IC50 [4]?
A: 176 µM

Q: And the IC50 [5]?
A: 68 µM

Q: What about the IC50 [6] of the same molecule?
A: 125 µM

Q: What about the IC50 [7] of the same molecule?
A: 138 µM

Q: What about the IC50 [8] of the same molecule?
A: 550 µM

Q: What about the IC50 [9] of the same molecule?
A: 139 µM

Q: And the IC50 [10]?
A: 96 µM

Q: What about the IC50 [11] of the same molecule?
A: 65 µM

Q: And the IC50 [12]?
A: 70 µM

Q: What about the IC50 [13] of the same molecule?
A: 86 µM

Q: And the “inhibition (INH)” value [14]?
A: 47%

Q: What about the “inhibition (INH)” value [15] of the same molecule?
A: 78%

Q: What about the Activity [16] of the same molecule?
A: inactive

Q: And the Activity [17]?
A: 60%

Q: And the Activity [18]?
A: 18%

Q: What about the Activity [19] of the same molecule?
A: 21%

Q: What about the Activity [20] of the same molecule?
A: 49%

Q: What about the Activity [21] of the same molecule?
A: 17%

Q: What about the Activity [22] of the same molecule?
A: 31%

Q: What about the Activity [23] of the same molecule?
A: 16%

Q: What about the Activity [24] of the same molecule?
A: Active

Q: What about the Activity [25] of the same molecule?
A: 13%

Q: And the Activity [26]?
A: 3%

Q: And the viability at 50 µM [27]?
A: 70%

Q: What about the Activity [28] of the same molecule?
A: 16%

Q: And the Activity [29]?
A: 3%

Q: And the viability at 150 µM [30]?
A: 64%

Q: And the Flu intensity [31]?
A: 7701

Q: And the Flu intensity [32]?
A: 7859

Q: What about the Flu intensity [33] of the same molecule?
A: 2024

Q: What about the Flu intensity [34] of the same molecule?
A: 7502
